Measured values reported in PMC5632672, “Generation of Persister Cells of Pseudomonas aeruginosa and Staphylococcus aureus by Chemical Treatment and Evaluation of Their Susceptibility to Membrane-Targeting Agents” (Frontiers in Microbiology, 2017).
No end group written: not given here.

What was measured:
[1] = tested on: Staphylococcus aureus ATCC 33591; conditions: ATCC 33591, 3 h
[2] = tested on: Pseudomonas aeruginosa ATCC 27853; conditions: ATCC 27853, 3 h

FLPIVGLLKSLLK-NH2 [TB_L1FK]
MBC, S. aureus CCCP-pretreated [1]: 3.5 µM
MBC, S. aureus CCCP-untreated [1]: 7 µM
MBC, P. aeruginosa CCCP-pretreated [2]: 14 µM
MBC, P. aeruginosa CCCP-untreated [2]: 14 µM
